Ki data for 3 molecules are collected here from patent US7968568B2, “Substituted piperidine derivatives as SST5 modulators” (Hoffmann-La Roche Inc., priority 2006, dated 2011).

For the assay, the target named is T1, human subtype 5 somatostatin receptor (Homo sapiens, UniProt P35346).
T1 construct: host or cells: CHO cell line, stably transfected; membranes prepared
T1 sequence (P35346 whole entry): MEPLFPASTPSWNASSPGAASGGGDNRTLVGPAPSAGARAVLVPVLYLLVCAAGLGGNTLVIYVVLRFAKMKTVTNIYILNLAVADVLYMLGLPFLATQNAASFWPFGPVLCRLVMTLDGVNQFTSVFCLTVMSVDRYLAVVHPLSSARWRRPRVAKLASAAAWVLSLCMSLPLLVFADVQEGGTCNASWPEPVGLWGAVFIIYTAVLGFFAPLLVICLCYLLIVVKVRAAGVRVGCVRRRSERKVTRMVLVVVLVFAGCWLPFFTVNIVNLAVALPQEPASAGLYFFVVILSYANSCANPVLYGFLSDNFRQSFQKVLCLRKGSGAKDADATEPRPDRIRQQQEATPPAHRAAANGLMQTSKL
As to the kind of experiment: SSTR5 radioligand binding assay (125I-labeled 11-Tyr somatostatin-14) on CHO cell membranes. To be noted: Ki calculated from IC50 by Cheng-Prussoff equation. As for the experimental part: A CHO cell line stably transfected with a plasmid encoding the human subtype 5 somatostatin receptor (GenBank accession number D16827) was obtained from Euroscreen. Cells were cultured and used for binding and functional assays.
Membranes of these cells were prepared by sonication in the presence of protease inhibitors and subsequent fractionating centrifugation. The protein concentration in the membrane preparation was determined using a commercial kit (BCA kit, Pierce, USA). Membranes were stored at −80° C. until use. After thawing, membranes were diluted in assay buffer (50 mM Tris-HCl at pH 7.4, 5 mM MgCl2 and 0.20% BSA) and subjected to dounce homogenization.
For binding studies, 0.1 mL membrane suspension, corresponding to app. 6×10^−15 mol receptor, was incubated for 1 h at room temperature with 0.05 nM ^125I-labeled tracer (11-Tyr somatostatin-14, Perkin-Elmer) and either test compounds in varying concentrations or, for the determination of non-specific binding, 0.001 mM non-labeled somatostatin-14. The incubation was stopped by filtration through GF/B glassfiber filters and washing with ice-cold wash buffer (50 mM Tris-HCl at pH 7.4). The bound radioactivity was measured after application of a scintillation cocktail (Microscint 40) and expressed as disintegrations per minute (dpm).
The receptor concentration was determined in a prior saturation experiment where a fixed, arbitrary amount of membranes was incubated with a concentration range of radio-labeled tracer. This allows estimating the total number of specific binding sites per amount of protein (i.e., Bmax), typically between 1 and 5 pmol/mg.
The concentration of the test compound required to result in half maximal inhibition of binding of the radio-labeled tracer (IC50) was estimated from a concentration-versus-dpm graph. The binding affinity (Ki) was calculated from the IC50 by applying the Cheng-Prussoff equation for single binding sites.
Regarding `CCOc1cc(CN2CCC(Nc3nc(Cl)nc4cc(Cl)c(F)cc34)CC2)ccc1OC` [Example 15, (2,7-dichloro-6-fluoro-quinazolin-4-yl)-[1-(3-ethoxy-4-methoxy-benzyl)-piperidin-4-yl]-amine], the Ki was 383 nM. As to `CCOc1cc(CN2CCC(Nc3ncnc4cc(Cl)ccc34)CC2)ccc1Cl` [Example 23, [1-(4-chloro-3-ethoxy-benzyl)-piperidin-4-yl]-(7-chloro-quinazolin-4-yl)-amine], the Ki was 2 nM. To `C=CCOc1cc(CN2CCC(Nc3nc(Cl)ncc3OC)CC2)ccc1OC` [Example 147, [1-(3-allyloxy-4-methoxy-benzyl)-piperidin-4-yl]-(2-chloro-5-methoxy-pyrimidin-4-yl)-amine] belongs 78 nM.

As a reminder, the Ki is the dissociation constant of the complex between target and ligand, obtained from inhibition or displacement.
